Consider 31 molecules from patent US20240400555A1 (Initial Therapeutics, Inc., priority 2023, published 2024).

SMILES strings stand for the structures.

The first test deals with MV-4-11 cells. Kind of test: Cell Viability Assay in MV-4-11 Cells. The test is classed as cell-based. The note with it: Homo sapiens, MV4-11, 72 h. Put shortly: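 Luminescent ATP read-out (CellTiter-Glo) after 72 h compound treatment of MV-4-11 leukaemia cells (7,000 per well, IMDM plus 10% FBS). Values expressed relative to DMSO control and derived by four-parameter non-linear regression.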
With `CNC(=S)Nc1ccc(-c2cc3c(N(C(=O)c4ccc(-c5cn(C)nn5)cc4F)[C@@H]4CCCNC4)nccc3s2)cc1` [Example 548, (R)-2-fluoro-4-(1-methyl-1H-1,2,3-triazol-4-yl)-N-(2-(4-(3-methylthioureido)phenyl)thieno[3,2-c]pyridin-4-yl)-N-(piperidin-3-yl)benzamide], half-maximal inhibition (IC50) was put at 240 nM.

Still in this test, the particulars now being: Homo sapiens, MV4-11, 72 h, MV-4-11 cells, 72 h, Cell-Titer Glo; read-out: IC50.
Consider `COc1cc(-c2cc3c(N(C(=O)c4ccc(-n5nnc6cccnc65)cc4F)[C@@H]4CCCNC4)nccc3s2)ccn1` [Example 460, 2-fluoro-N-[2-(2-methoxy-4-pyridyl)thieno[3,2-c]pyridin-4-yl]-N-[(3R)-3-piperidyl]-4-(triazolo[4,5-b]pyridin-3-yl)benzamide], for which the IC50 amounted to 220 nM.
Still for that read-out and setting: the value for `COc1ccc2c(N(C(=O)c3ccc(-c4cn(C)nn4)cc3F)[C@@H]3CCCNC3)nccc2c1` [Example 471, (R)-2-fluoro-N-(6-methoxyisoquinolin-1-yl)-4-(1-methyl-1H-1,2,3-triazol-4-yl)-N-(piperidin-3-yl)benzamide] was 240 nM; that for `Cn1cc(-c2ccc(C(=O)N(c3nccc4sc(-c5ccc6[nH]c(=O)[nH]c6c5)cc34)[C@@H]3CCCNC3)c(F)c2)nn1` [Example 545] was 5300 nM; that for `Cc1cccc2ccnc(N(C(=O)c3ccc(Nc4nccc(N5CCCC[C@H]5CO)n4)cc3F)[C@@H]3CCCNC3)c12` [Example 960, 2-fluoro-4-((4-((S)-2-(hydroxymethyl)piperidin-1-yl)pyrimidin-2-yl)amino)-N-(8-methylisoquinolin-1-yl)-N—((R)-piperidin-3-yl)benzamide] was 110 nM.
For the molecule `Cc1cccc2ccnc(N(C(=O)c3ccc(Nc4nccc(N5CCC[C@H](O)C5)n4)cc3F)[C@@H]3CCCNC3)c12` [Example 624, 2-fluoro-4-((4-((S)-3-hydroxypiperidin-1-yl)pyrimidin-2-yl)amino)-N-(8-methylisoquinolin-1-yl)-N—((R)-piperidin-3-yl)benzamide], the IC50 came out at 180 nM.
On the same count and under the same terms, the value for `CNS(=O)(=O)c1ccc(-c2cc3c(N(C(=O)c4ccc(-c5cn(C)nn5)cc4F)[C@@H]4CCCNC4)nccc3s2)cc1` [Example 534, (R)-2-fluoro-4-(1-methyl-1H-1,2,3-triazol-4-yl)-N-(2-(4-(N-methylsulfamoyl)phenyl)thieno[3,2-c]pyridin-4-yl)-N-(piperidin-3-yl)benzamide] was 200 nM; that for `Cn1cc(-c2ccc(C(=O)N(c3nccc4cccc(CCc5cccnc5)c34)[C@@H]3CCCNC3)cc2)nn1` [Example 403, 4-(1-methyltriazol-4-yl)-N-[(3R)-3-piperidyl]-N-[8-[2-(3-pyridyl)ethyl]-1-isoquinolyl]benzamide] was 2100 nM.
Same read-out and setting: the figure for `Cc1cccc2ccnc(N(C(=O)c3cccc(C#CCCCO)c3)[C@@H]3CCCNC3)c12` [Example 513, (R)-3-(5-hydroxypent-1-yn-1-yl)-N-(8-methylisoquinolin-1-yl)-N-(piperidin-3-yl) benzamide] is 540 nM; for `Cn1cc(-c2ccc(C(=O)N(c3nccc4sc(-c5ccc6c(c5)NC(=O)C6)cc34)[C@@H]3CCCNC3)c(F)c2)nn1` [Example 544] it is 1800 nM; for `Cc1nnc(-c2ccc(C(=O)N(c3nccc4scc(C)c34)[C@@H]3CCCNC3)nc2)s1` [Example 810, (R)-5-(5-methyl-1,3,4-thiadiazol-2-yl)-N-(3-methylthieno[3,2-c]pyridin-4-yl)-N-(piperidin-3-yl)picolinamide] it is 170 nM.
The same measure, in the same setting: the value for `COCCc1nnc(-c2ccc(C(=O)N(c3nccc4cccc(C)c34)[C@@H]3CCCNC3)cn2)s1` [Example 910, (R)-6-(5-(2-methoxyethyl)-1,3,4-thiadiazol-2-yl)-N-(8-methylisoquinolin-1-yl)-N-(piperidin-3-yl)nicotinamide] was 97 nM; that for `Cc1ncc(-c2cc3c(N(C(=O)c4ccc(-c5cn(C)nn5)cc4F)[C@@H]4CCCNC4)nccc3s2)s1` [Example 483, (R)-2-fluoro-4-(1-methyl-1H-1,2,3-triazol-4-yl)-N-(2-(2-methylthiazol-5-yl)thieno[3,2-c]pyridin-4-yl)-N-(piperidin-3-yl)benzamide] was 340 nM.
Turning to `Cc1cc(C)c2c(N(C(=O)c3ccc(-c4nnc(C)s4)nc3)[C@@H]3CCCNC3)nccc2c1` [Example 648, (R)—N-(6,8-dimethylisoquinolin-1-yl)-6-(5-methyl-1,3,4-thiadiazol-2-yl)-N-(piperidin-3-yl)nicotinamide], the IC50 is 39 nM.
Still for that read-out and setting: the value for `COc1ccc(C)c2c(N(C(=O)c3ccc(-c4cn(C)nn4)cc3)[C@@H]3CCCNC3)nccc12` [Example 872, N-(5-methoxy-8-methyl-1-isoquinolyl)-4-(1-methyltriazol-4-yl)-N-[(3R)-3-piperidyl]benzamide] was 2100 nM; that for `Cn1cc(-c2ccc(C(=O)N(c3nccc4cc(-c5ccc(S(C)(=O)=O)cc5)ccc34)[C@@H]3CCCNC3)c(F)c2)nn1` [Example 582, (R)-2-fluoro-4-(1-methyl-1H-1,2,3-triazol-4-yl)-N-(6-(4-(methylsulfonyl)phenyl)isoquinolin-1-yl)-N-(piperidin-3-yl)benzamide] was 220 nM.
On to `Cc1nnc(-c2ccc(C(=O)N(c3nccc4c(C)ccc(C)c34)[C@@H]3CCCNC3)cn2)s1` [Example 897, N-(5,8-dimethyl-1-isoquinolyl)-6-(5-methyl-1,3,4-thiadiazol-2-yl)-N-[(3R)-3-piperidyl] pyridine-3-carboxamide], for which the IC50 was determined as 140 nM.
The same measure, in the same setting: the figure for `Cc1nnc(-c2ccc(C(=O)N(c3nccc4c(F)ccc(C)c34)[C@@H]3CCCNC3)c(F)c2)s1` [Example 760, (R)-2-fluoro-N-(5-fluoro-8-methylisoquinolin-1-yl)-4-(5-methyl-1,3,4-thiadiazol-2-yl)-N-(piperidin-3-yl)benzamide] is 160 nM; for `Cc1nnc(-c2ccc(C(=O)N(c3nccc4scc(C)c34)[C@@H]3CCCNC3)cc2)s1` [Example 798, (R)-4-(5-methyl-1,3,4-thiadiazol-2-yl)-N-(3-methylthieno[3,2-c]pyridin-4-yl)-N-(piperidin-3-yl)benzamide] it is 82 nM; for `COCCn1nc(C)cc1-c1ccc(C(=O)N(c2nccc3cc(F)cc(C)c23)[C@@H]2CCCNC2)nc1` [Example 729, (R)—N-(6-fluoro-8-methylisoquinolin-1-yl)-5-(1-(2-methoxyethyl)-3-methyl-1H-pyrazol-5-yl)-N-(piperidin-3-yl)picolinamide] it is over 6500 nM.
`Cc1nnc(-c2ccc(C(=O)N(c3nccc4scc(C)c34)[C@@H]3CCCNC3)cn2)o1` [Example 919, 6-(5-methyl-1,3,4-oxadiazol-2-yl)-N-(3-methylthieno[3,2-c]pyridin-4-yl)-N-[(3R)-3-piperidyl]pyridine-3-carboxamide]: the IC50 was 160 nM.
On to `Cc1nnc(-c2ccc(C(=O)N(c3nccc4scc(C)c34)[C@@H]3CCCNC3)c(F)c2)s1` [Example 781, (R)-2-fluoro-4-(5-methyl-1,3,4-thiadiazol-2-yl)-N-(3-methylthieno[3,2-c]pyridin-4-yl)-N-(piperidin-3-yl)benzamide], for which the IC50 came out at 130 nM.
For the molecule `Cc1cccc2ccnc(N(C(=O)c3ccc(Nc4nccc(N5[C@H](C)COC[C@H]5C)n4)cc3F)[C@@H]3CCCNC3)c12` [Example 939, 4-((4-((3R,5R)-3,5-dimethylmorpholino)pyrimidin-2-yl)amino)-2-fluoro-N-(8-methylisoquinolin-1-yl)-N—((R)-piperidin-3-yl)benzamide], the IC50 worked out at 69 nM.
For `Cc1cccc2ccnc(N(C(=O)c3cccc(C#CCCC(=O)O)c3)[C@@H]3CCCNC3)c12` [Example 590, (R)-5-(3-((8-methylisoquinolin-1-yl)(piperidin-3-yl)carbamoyl)phenyl)pent-4-ynoic acid], the 50% inhibitory concentration (IC50) is over 10000 nM.
Same read-out and setting: the value for `O=C(c1ccc(-n2nnc3cccnc32)cc1F)N(c1nccc2sc(-c3ccc(O)cc3)cc12)[C@@H]1CCCNC1` [Example 377, (R)-4-(3H-[1,2,3]triazolo[4,5-b]pyridin-3-yl)-2-fluoro-N-(2-(4-hydroxyphenyl)thieno[3,2-c]pyridin-4-yl)-N-(piperidin-3-yl)benzamide] was 1300 nM; that for `CCc1nnc(-c2ccc(C(=O)N(c3nccc4c(F)ccc(C)c34)[C@@H]3CCCNC3)c(F)c2)s1` [Example 657, (R)-4-(5-ethyl-1,3,4-thiadiazol-2-yl)-2-fluoro-N-(5-fluoro-8-methylisoquinolin-1-yl)-N-(piperidin-3-yl)benzamide] was 170 nM; that for `COCCNc1ccnc(Nc2ccc(C(=O)N(c3nccc4cccc(C)c34)[C@@H]3CCCNC3)c(F)c2)n1` [Example 744, (R)-2-fluoro-4-((4-((2-methoxyethyl)amino)pyrimidin-2-yl)amino)-N-(8-methylisoquinolin-1-yl)-N-(piperidin-3-yl)benzamide] was 69 nM.
For the molecule `Cc1cccc2ccnc(N(C(=O)c3ccc(C#N)c(-c4cccc(-c5cccnc5)c4)c3)[C@@H]3CCCNC3)c12` [Example 336, 4-cyano-N-(8-methyl-1-isoquinolyl)-N-[(3R)-3-piperidyl]-3-[3-(3-pyridyl)phenyl]benzamide], the IC50 is 270 nM.
On the same count and under the same terms, the figure for `CNC(=O)c1ccc(-c2cc3c(N(C(=O)c4ccc(-n5nnc6cccnc65)cc4F)[C@@H]4CCCNC4)nccc3s2)cc1` [Example 380, 2-fluoro-N-[2-[4-(methylcarbamoyl)phenyl]thieno[3,2-c]pyridin-4-yl]-N-[(3R)-3-piperidyl]-4-(triazolo[4,5-b]pyridin-3-yl)benzamide] is 120 nM; for `Cc1cc2c(N(C(=O)c3ccc(-n4nnc5cccnc54)cc3F)[C@@H]3CCCNC3)nccc2s1` [Example 739, (R)-4-(3H-[1,2,3]triazolo[4,5-b]pyridin-3-yl)-2-fluoro-N-(2-methylthieno[3,2-c]pyridin-4-yl)-N-(piperidin-3-yl)benzamide] it is 650 nM.
Still for that read-out and setting: the figure for `COc1nnc(-c2ccc(C(=O)N(c3nccc4cc(F)cc(C)c34)[C@@H]3CCCNC3)c(F)c2)s1` [Example 710, 2-fluoro-N-(6-fluoro-8-methyl-1-isoquinolyl)-4-(5-methoxy-1,3,4-thiadiazol-2-yl)-N-[(3R)-3-piperidyl]benzamide] is 2300 nM.

A word on the IC50: it is the concentration that gives 50% inhibition.
